Data on 21 compounds can be found in patent US9079901B2, “Fused heterocyclic compounds as ion channel modulators” (Gilead Sciences, Inc., priority 2010, dated 2015).

SMILES strings stand for the structures.

For the test, the target named is wild-type human cardiac sodium channel, hNav1.5 (late sodium current) in HEK293 cells (Homo sapiens, UniProt Q14524). The experiment in a line: Late INa screening assay (automated whole-cell patch clamp, PatchXpress). The test is classed as cell-based. The note with it: HEK293, compound at 1 μM; late INa generated with 10 μM Tefluthrin (or 50 nM ATX II); HEK293 hNav1.5; read-out: Late INa 1 μM (percent block of late INa). The method in brief: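 Percent block was derived from mean current 225–250 ms into a 250 ms depolarisation to −20 mV (holding −120 mV, every 10 s), normalised to the current left in Na-free solution. Whole-cell recordings came from HEK293 cells stably expressing α-subunit-only hNav1.5, at 24–27 °C. Late current was enhanced with 10 μM tefluthrin or 50 nM ATX II, then compound (typically 10 μM) was added three times over 7–8 min.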
On the technique in general: Patch clamp records ionic current or voltage across a cell membrane.

Chain of wild-type human cardiac sodium channel, hNav1.5 (late sodium current) in HEK293 cells (Q14524 whole entry): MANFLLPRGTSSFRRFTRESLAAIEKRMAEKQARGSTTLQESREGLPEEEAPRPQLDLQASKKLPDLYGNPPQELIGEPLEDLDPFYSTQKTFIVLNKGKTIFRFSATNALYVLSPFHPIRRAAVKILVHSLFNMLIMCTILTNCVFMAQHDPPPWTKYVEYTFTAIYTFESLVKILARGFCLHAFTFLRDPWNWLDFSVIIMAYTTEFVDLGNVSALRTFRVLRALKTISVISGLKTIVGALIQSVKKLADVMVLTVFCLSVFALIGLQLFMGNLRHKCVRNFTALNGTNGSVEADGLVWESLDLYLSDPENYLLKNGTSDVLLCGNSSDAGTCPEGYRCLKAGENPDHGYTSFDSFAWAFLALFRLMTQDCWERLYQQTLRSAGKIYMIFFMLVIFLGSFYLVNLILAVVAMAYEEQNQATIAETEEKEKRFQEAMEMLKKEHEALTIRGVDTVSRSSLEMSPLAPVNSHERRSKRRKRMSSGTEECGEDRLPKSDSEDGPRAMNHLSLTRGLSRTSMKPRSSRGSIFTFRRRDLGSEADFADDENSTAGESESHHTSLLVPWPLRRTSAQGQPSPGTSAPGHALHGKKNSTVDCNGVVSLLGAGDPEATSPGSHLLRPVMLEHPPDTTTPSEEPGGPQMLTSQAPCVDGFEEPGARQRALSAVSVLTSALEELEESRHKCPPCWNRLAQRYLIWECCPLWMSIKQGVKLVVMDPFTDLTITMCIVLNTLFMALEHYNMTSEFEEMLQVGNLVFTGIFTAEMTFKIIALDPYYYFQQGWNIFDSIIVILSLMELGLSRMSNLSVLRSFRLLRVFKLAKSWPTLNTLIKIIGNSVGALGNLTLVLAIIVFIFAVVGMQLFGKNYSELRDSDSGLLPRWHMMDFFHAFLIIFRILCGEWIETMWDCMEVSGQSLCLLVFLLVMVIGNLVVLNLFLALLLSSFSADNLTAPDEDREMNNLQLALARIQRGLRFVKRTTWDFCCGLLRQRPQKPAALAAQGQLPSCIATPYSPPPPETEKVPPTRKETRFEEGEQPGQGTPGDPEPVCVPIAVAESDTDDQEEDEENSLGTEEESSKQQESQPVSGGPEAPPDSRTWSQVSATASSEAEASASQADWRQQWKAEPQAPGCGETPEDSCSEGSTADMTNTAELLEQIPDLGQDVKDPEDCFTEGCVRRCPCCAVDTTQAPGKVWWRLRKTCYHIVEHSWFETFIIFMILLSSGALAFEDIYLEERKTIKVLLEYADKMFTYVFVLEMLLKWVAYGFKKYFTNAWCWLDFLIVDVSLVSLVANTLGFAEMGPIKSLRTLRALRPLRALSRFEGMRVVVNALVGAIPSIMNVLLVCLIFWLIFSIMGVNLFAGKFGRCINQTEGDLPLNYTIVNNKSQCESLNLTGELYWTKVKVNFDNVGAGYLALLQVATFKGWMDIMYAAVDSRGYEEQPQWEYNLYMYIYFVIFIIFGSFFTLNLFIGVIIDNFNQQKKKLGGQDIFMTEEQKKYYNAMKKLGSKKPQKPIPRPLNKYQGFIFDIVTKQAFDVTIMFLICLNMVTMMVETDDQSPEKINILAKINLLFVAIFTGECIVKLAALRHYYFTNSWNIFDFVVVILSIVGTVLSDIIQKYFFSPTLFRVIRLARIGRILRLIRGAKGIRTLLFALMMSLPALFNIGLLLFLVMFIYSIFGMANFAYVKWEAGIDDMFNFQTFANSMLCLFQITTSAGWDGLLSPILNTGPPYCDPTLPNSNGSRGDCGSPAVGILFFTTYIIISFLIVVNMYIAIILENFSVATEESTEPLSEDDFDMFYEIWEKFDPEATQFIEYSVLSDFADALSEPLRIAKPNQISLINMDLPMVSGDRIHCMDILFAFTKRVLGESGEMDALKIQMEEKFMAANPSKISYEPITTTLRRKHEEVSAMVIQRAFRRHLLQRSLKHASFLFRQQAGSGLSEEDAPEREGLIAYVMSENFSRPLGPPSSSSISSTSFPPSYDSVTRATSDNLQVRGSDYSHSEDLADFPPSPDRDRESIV

`Cc1ccnc(CCn2nc3ccc(-c4ccc(OC(F)(F)F)cc4)cn3c2=O)c1` [compound 58, 2-(2-(4-methylpyridin-2-yl)ethyl)-6-(4-(trifluoromethoxy)phenyl)-[1,2,4]triazolo[4,3-a]pyridin-3(2H)-one]: the inhibition at 1 µM turned out to be 14.9%.

With `O=c1n(Cc2ccc3ccccc3n2)nc2ccc(-c3ccc(OC(F)(F)F)cc3)cn12` [compound 13, 2-(quinolin-2-ylmethyl)-6-(4-(trifluoromethoxy)phenyl)-[1,2,4]triazolo[4,3-a]pyridin-3(2H)-one], the inhibition at 1 µM stood at 24.6%.

For `Cc1noc(Cn2nc3ccc(-c4ccc([Si](C)(C)C)cc4)cn3c2=O)n1` [compound 110, 2-((3-methyl-1,2,4-oxadiazol-5-yl)methyl)-6-(4-(trimethylsilyl)phenyl)-[1,2,4]triazolo[4,3-a]pyridin-3(2H)-one], the inhibition at 1 µM worked out at 44.3%.

Regarding `O=c1n(CCc2ncccc2C2CC2)nc2ccc(-c3ccc(OC(F)(F)F)cc3)cn12` [compound 60, 2-(2-(3-cyclopropylpyridin-2-yl)ethyl)-6-(4-(trifluoromethoxy)phenyl)-[1,2,4]triazolo[4,3-a]pyridin-3(2H)-one], the inhibition at 1 µM is 34.1%.

For the compound `Cn1ccc(Cn2nc3ccc(-c4ccc(OC(F)(F)F)cc4)cn3c2=O)n1` [compound 165, 2-((1-methyl-1H-pyrazol-3-yl)methyl)-6-(4-(trifluoromethoxy)phenyl)-[1,2,4]triazolo[4,3-a]pyridin-3(2H)-one], the inhibition at 1 µM came to 10.8%.

In the case of `O=c1n(CCc2ccc(F)cc2)nc2ccc(-c3ccc(OC(F)(F)F)cc3)cn12` [compound 59, 2-(4-fluorophenethyl)-6-(4-(trifluoromethoxy)phenyl)-[1,2,4]triazolo[4,3-a]pyridin-3(2H)-one], the inhibition at 1 µM stood at 27.1%.

As to `O=c1n(CCc2c(F)cccc2F)nc2ccc(-c3ccc(OC(F)(F)F)cc3)cn12` [compound 63, 2-(2,6-difluorophenethyl)-6-(4-(trifluoromethoxy)phenyl)-[1,2,4]triazolo[4,3-a]pyridin-3(2H)-one], the inhibition at 1 µM turned out to be 46.9%.

Turning to `O=c1n(CCn2cnc(-c3ccccc3)c2)nc2ccc(-c3ccc(OC(F)(F)F)cc3)cn12` [compound 45, 2-(2-(4-phenyl-1H-imidazol-1-yl)ethyl)-6-(4-(trifluoromethoxy)phenyl)-[1,2,4]triazolo[4,3-a]pyridin-3(2H)-one], the inhibition at 1 µM stood at 11.8%.

`O=c1n(CCOc2ncccc2C(F)(F)F)nc2ccc(-c3ccc(OC(F)(F)F)cc3)cn12` [compound 47, 6-(4-(trifluoromethoxy)phenyl)-2-(2-(3-(trifluoromethyl)pyridin-2-yloxy)ethyl)-[1,2,4]triazolo[4,3-a]pyridin-3(2H)-one]: the inhibition at 1 µM was found to be 43.6%.

On to `Cc1cccc(CCn2nc3ccc(-c4ccc(OC(F)(F)F)cc4)cn3c2=O)n1` [compound 48, 2-(2-(6-methylpyridin-2-yl)ethyl)-6-(4-(trifluoromethoxy)phenyl)-[1,2,4]triazolo[4,3-a]pyridin-3(2H)-one], for which the inhibition at 1 µM worked out at 34.9%.

Take `O=c1n(CCOc2ccc(F)cc2)nc2ccc(-c3ccc(OC(F)(F)F)cc3)cn12` [compound 55, 2-(2-(4-fluorophenoxy)ethyl)-6-(4-(trifluoromethoxy)phenyl)-[1,2,4]triazolo[4,3-a]pyridin-3(2H)-one]: the inhibition at 1 µM turned out to be 24.3%.

`O=c1n(CC(O)COc2ccccc2)nc2ccc(-c3ccc(OC(F)(F)F)cc3)cn12` (stereo not drawn) [compound 43, 2-(2-hydroxy-3-phenoxypropyl)-6-(4-(trifluoromethoxy)phenyl)-[1,2,4]triazolo[4,3-a]pyridin-3(2H)-one]: the inhibition at 1 µM came out at 19.3%.

Take `Cc1ccn(CCn2nc3ccc(-c4ccc(OC(F)(F)F)cc4)cn3c2=O)n1` [compound 42, 2-(2-(3-methyl-1H-pyrazol-1-yl)ethyl)-6-(4-(trifluoromethoxy)phenyl)-[1,2,4]triazolo[4,3-a]pyridin-3(2H)-one]: the inhibition at 1 µM was 18.9%.

For `CO[C@@H](COc1ccccc1Cl)Cn1nc2ccc(-c3ccc(OC(F)(F)F)cc3)cn2c1=O` [compound 96, (R)-2-(3-(2-chlorophenoxy)-2-methoxypropyl)-6-(4-(trifluoromethoxy)phenyl)-[1,2,4]triazolo[4,3-a]pyridin-3(2H)-one], the inhibition at 1 µM stood at 46.1%.

On to `O=c1n(CCOc2ncc(C(F)(F)F)cn2)nc2ccc(-c3ccc(OC(F)(F)F)cc3)cn12` [compound 180, 6-(4-(trifluoromethoxy)phenyl)-2-(2-(5-(trifluoromethyl)pyrimidin-2-yloxy)ethyl)-[1,2,4]triazolo[4,3-a]pyridin-3(2H)-one], for which the inhibition at 1 µM was 22.6%.

As for `Cc1noc(Cn2nc3ccc(-c4ccc(F)c(F)c4)cn3c2=O)n1` [compound 150, 6-(3,4-difluorophenyl)-2-((3-methyl-1,2,4-oxadiazol-5-yl)methyl)-[1,2,4]triazolo[4,3-a]pyridin-3(2H)-one], the inhibition at 1 µM is 12.8%.

`Cc1nc(Cn2nc3ccc(-c4ccc(Oc5ccc(F)cc5)cc4)cn3c2=O)no1` [compound 140, 6-(4-(4-fluorophenoxy)phenyl)-2-((5-methyl-1,2,4-oxadiazol-3-yl)methyl)-[1,2,4]triazolo[4,3-a]pyridin-3(2H)-one]: the inhibition at 1 µM turned out to be 60.6%.

As to `O=c1n(CCc2cnccn2)nc2ccc(-c3ccc(OC(F)(F)F)cc3)cn12` [compound 114, 2-(2-(pyrazin-2-yl)ethyl)-6-(4-(trifluoromethoxy)phenyl)-[1,2,4]triazolo[4,3-a]pyridin-3(2H)-one], the inhibition at 1 µM was found to be 14.4%.

In the case of `Cc1nc(Cn2nc3ccc(-c4ccc(C(F)(F)F)cc4)cn3c2=O)oc1C` [compound 173, 2-((4,5-dimethyloxazol-2-yl)methyl)-6-(4-(trifluoromethyl)phenyl)-[1,2,4]triazolo[4,3-a]pyridin-3(2H)-one], the inhibition at 1 µM came out at 22.2%.

For `O=c1n(Cc2noc(-c3cccc(C(F)(F)F)c3)n2)nc2ccc(-c3ccc(OC(F)(F)F)cc3)cn12` [compound 7, 6-(4-(trifluoromethoxy)phenyl)-2-((5-(3-(trifluoromethyl)phenyl)-1,2,4-oxadiazol-3-yl)methyl)-[1,2,4]triazolo[4,3-a]pyridin-3(2H)-one], the inhibition at 1 µM is 24.5%.

As to `O=c1n(CCOc2ncc(Cl)cn2)nc2ccc(-c3ccc(OC(F)(F)F)cc3)cn12` [compound 92, 2-(2-(5-chloropyrimidin-2-yloxy)ethyl)-6-(4-(trifluoromethoxy)phenyl)-[1,2,4]triazolo[4,3-a]pyridin-3(2H)-one], the inhibition at 1 µM was 35.3%.
